Test results taken from PMC10608878, “Synthesis and Antiproliferative Activity of 2,6-Disubstituted Imidazo[4,5-b]pyridines Prepared by Suzuki Cross Coupling” (Molecules, 2023).
Like-named read-outs stand apart in the source and are kept apart here.

Assays:
in vitro [1] = details: African green monkey
yellow fever virus (YFV) = assay: microbe, parasite or virus in culture; assay type: cell-based; details: Yellow fever virus, Vero C1008, read-out: Antiviral Activity (EC50) YFV VeroE6
[2] = test system: respiratory syncytial virus (RSV) A; assay: Antiviral CPE assay, RSV in Hep-2; assay type: cell-based; details: human respiratory syncytial virus; Hep-2 host cells
[3] = test system: Semliki Forest virus (SFV); assay: Antiviral CPE assay, SFV in VeroE6; assay type: cell-based; details: Semliki Forest virus, Vero C1008; VeroE6 host cells
Sindbis virus (SINDV) = assay: Antiviral CPE assay, SINDV in VeroE6; assay type: cell-based; details: Sindbis virus, Vero C1008; VeroE6 host cells
Zika virus (ZIKV) = assay: Antiviral CPE assay, ZIKV in VeroE6; assay type: cell-based; details: Zika virus, Vero C1008; VeroE6 host cells
[4] = test system: human coronavirus HCoV-OC43; assay: Antiviral CPE assay, HCoV-OC43 in HEL 299; assay type: cell-based; details: Betacoronavirus 1, OC43; HEL 299 host cells
[5] = test system: human coronavirus HCoV-NL63; assay: Antiviral CPE assay, HCoV-NL63 in Hep3B; assay type: cell-based; details: Hep3B host cells
in vitro [6] = details: human
in vitro [7] = details: human; remark: listed apart in the source
[8] = test system: human coronavirus HCoV-229E; assay: organism not typed; assay type: cell-based, human coronavirus 229E; details: HEL 299 host cells; read-out: Antiviral Activity (EC50) HCoV 229E HEL 299
in vitro [9] = details: human; remark: listed apart in the source
[10] = test system: herpes simplex virus-1 (HSV-1 KOS); assay: Antiviral CPE assay, HSV-1 in HEL 299; assay type: cell-based; details: Human alphaherpesvirus 1; HEL 299 host cells
human cancer cell lines = assay: Antiproliferative activity, panel of human cancer cell lines; assay type: cell-based
Experimental: (§1) All prepared imidazo[4,5-b]pyridines were tested for their antiproliferative activity against the following cancer cell lines: LN-229—glioblastoma, Capan-1—pancreatic adenocarcinoma, HCT-116—colorectal carcinoma, NCI-H460—lung carcinoma, DND-41—acute lymphoblastic leukemia, HL-60—acute myeloid leukemia, K-562—chronic myeloid leukemia, and Z-138—non-Hodgkin lymphoma cancer cells. An overview of the results is presented in Table 2 as IC50 values (50% inhibitory concentration). An established antitumor drug, etoposide (ETO), was included for comparison.
(§2) For proliferation assays, the human cancer cell lines used in this manuscript, namely Capan-1, HCT-116, NCI-H460, LN-229, HL-60, K-562, and Z-138, were acquired from the American Type Culture Collection (ATCC, Manassas, VA, USA), while the DND-41 cell line was purchased from the Deutsche Sammlung von Mikroorganismen und Zellkulturen (DSMZ Leibniz-Institut, Braunschweig, Germany). Culture media were purchased from Gibco (Gibco Life Technologies, Merelbeke, Belgium) and supplemented with 10% fetal bovine serum (HyClone, Cytiva, Marlborough, MA, USA). Adherent cell lines LN-229, HCT-116, NCI-H460, and Capan-1 cells were seeded in 384-well tissue culture plates (Greiner, Kremsmünster, Austria) at a density between 500 and 1500 cells per well (500 cells per well for Capan-1, 1000 cells per well for LN-229 and HCT-116, and 1500 cells per well for NCI-H460). The cells were treated with seven different concentrations of the test compounds in a 5-fold dilution series ranging from 100 to 0.006 µM after overnight incubation. Suspension cell lines HL-60, K-562, Z-138, and DND-41 were seeded at densities ranging from 2500 to 5500 cells per well (2500 cells per well for HL-60, K-562, and Z-138, and 5500 cells per well for DND-41) in 384-well culture plates containing the test compounds at the same concentration points. All conditions were incubated for 72 h before measuring the cell viability by the CellTiter 96® AQueous Non-Radioactive Cell Proliferation Assay (Promega, Madison, WA, USA) according to the manufacturer’s instructions. After 3 h, absorbance of all conditions was measured at 490 nm using a SpectraMax Plus 384 (Molecular Devices, San Jose, CA, USA), and the OD values were used to calculate the 50% inhibitory concentration (IC50). Compounds were tested in two independent experiments.

host cell lines = host cell lines of the antiviral assays
[11] = test system: normal peripheral blood mononuclear cells (PBMC); assay: Toxicity in normal peripheral blood mononuclear cells; assay type: cell-based
Text: Figure 6 Toxicity of compounds 13 and 19 in normal cells.

[12] = test system: K-562 chronic myeloid leukemia cells; assay: Antiproliferative activity, K-562 cells; assay type: cell-based, human; details: Homo sapiens, K562, 72 h, K-562, 72 h incubation
Experimental: as §1, §2

[13] = test system: HCT-116 colorectal carcinoma cells; assay: Antiproliferative activity, HCT-116 cells; assay type: cell-based, human; details: Homo sapiens, HCT-116, 72 h, HCT-116, 72 h incubation
Experimental: as §1, §2

[14] = test system: Z-138 non-Hodgkin lymphoma cells; assay: Antiproliferative activity, Z-138 cells; assay type: cell-based, human; details: Z-138, 72 h incubation
Experimental: as §1, §2

[15] = test system: HL-60 acute myeloid leukemia cells; assay: Antiproliferative activity, HL-60 cells; assay type: cell-based, human; details: Homo sapiens, HL-60, 72 h, HL-60, 72 h incubation
Experimental: as §1, §2

[16] = test system: NCI-H460 lung carcinoma cells; assay: Antiproliferative activity, NCI-H460 cells; assay type: cell-based, human; details: Homo sapiens, NCI-H460, 72 h, NCI-H460, 72 h incubation
Experimental: as §1, §2

[17] = test system: Capan-1 pancreatic adenocarcinoma cells; assay: Antiproliferative activity, Capan-1 cells; assay type: cell-based, human; details: Homo sapiens, CAPAN-1, 72 h, Capan-1, 72 h incubation
Experimental: as §1, §2

[18] = test system: LN-229 glioblastoma cells; assay: Antiproliferative activity, LN-229 cells; assay type: cell-based, human; details: Homo sapiens, LN-229, 72 h, LN-229, 72 h incubation
Experimental: as §1, §2

[19] = test system: DND-41 acute lymphoblastic leukemia cells; assay: Antiproliferative activity, DND-41 cells; assay type: cell-based, human; details: Homo sapiens, DND41, 72 h, DND-41, 72 h incubation
Experimental: as §1, §2

[20] = test system: influenza B (B/Ned/537/05); assay: Antiviral CPE assay, influenza B in MDCK; assay type: cell-based; details: Influenza B virus; MDCK host cells
[21] = test system: influenza A/H3N2 (A/HK/7/87); assay: Antiviral CPE assay, influenza A/H3N2 in MDCK; assay type: cell-based; details: Influenza A virus, MDCK host cells
[22] = test system: influenza A/H1N1 (A/Ned/378/05); assay: Antiviral CPE assay, influenza A/H1N1 in MDCK; assay type: cell-based; details: Influenza A virus, MDCK host cells
in vitro [23] = details: dog

SMILES | CC50 (in vitro [1]) [µM] | EC50 (yellow fever virus (YFV)) [µM] | EC50 [2] [µM] | IC50 [12] [µM] | IC50 [13] [µM] | IC50 ([14]; Homo sapiens, Z-138, 72 h) [µM] | IC50 [15] [µM] | IC50 [16] [µM] | IC50 [17] [µM] | IC50 [18] [µM] | IC50 [19] [µM] | EC50 [20] [µM] | EC50 [21] [µM] | EC50 [22] [µM] | CC50 (in vitro [23]) [µM] | also measured
COc1c(C)c2c(c(O)c1C/C=C(\C)CCC(=O)O)C(=O)OC2 [Mycoph. acid, mycophenolic acid] | > 100 | 0.6 | 0.8 | – | – | – | – | – | – | – | – | – | – | – | – | EC50 [3]: > 100 µM; EC50 (Sindbis virus (SINDV)): > 100 µM; EC50 (Zika virus (ZIKV)): 25.2 µM
CCC(CC)COC(=O)[C@H](C)N[P@](=O)(OC[C@H]1O[C@@](C#N)(c2ccc3c(N)ncnn23)[C@H](O)[C@@H]1O)Oc1ccccc1 [Remdesivir, remdesivir] | – | – | 0.006 | – | – | – | – | – | – | – | – | – | – | – | – | EC50 [4]: 0.06 µM; EC50 [5]: 0.2 µM; CC50 (in vitro [6]): > 10 µM; CC50 (in vitro [7]): > 10 µM; EC50 [8]: 0.2 µM; CC50 (in vitro [9]): > 10 µM; EC50 [10]: > 10 µM
Oc1ccc(-c2cnc3[nH]c(-c4ccccc4)nc3c2)cc1 [Compound 13, 4-(2-phenyl-3H-imidazo [4,5-b]pyridin-6-yl)phenol] | – | – | – | 3.42 | 3.94 | 1.87 | 1.65 | 4.25 | 1.5 | 4.1 | 4.25 | – | – | – | – | IC50 (human cancer cell lines; Capan-1, HL-60 and Z-138 cell lines, read-out: IC50 range, particularly strong inhibition): 1.5 to 1.87 µM; IC50 (human cancer cell lines; most/majority of the tested cancer cell lines, read-out: IC50 range against most of the tested cell lines): 1.45 to 4.25 µM; Cytotoxicity on host cell lines (host cell lines): cytotoxicity was observed on all host cell lines, with the exception of the non-cancerous HEL 229 cells; Effect on viability of PBMC ([11]; 10 µM): little to no effect; Effect on viability of PBMC ([11]; 100 µM (highest dose tested)): negatively impacted the viability
CC(N)C12CC3CC(CC(C3)C1)C2 (stereo not shown) [Rimantadin, rimantadine] | – | – | – | – | – | – | – | – | – | – | – | > 100 | 0.06 | 0.08 | > 100 | –
NC(=O)c1ncn([C@@H]2O[C@H](CO)[C@@H](O)[C@H]2O)n1 [Ribavirin, ribavirin] | > 250 | 235 | 35.7 | – | – | – | – | – | – | – | – | 5.2 | 12.3 | 6.6 | > 250 | EC50 [4]: 97.6 µM; EC50 [5]: 45.8 µM; EC50 [8]: 83.3 µM; EC50 [10]: 217 µM
N#Cc1ccc(-c2cnc3[nH]c(-c4ccccc4)nc3c2)cc1 [Compound 15, 4-(2-phenyl-3H-imidazo [4,5-b]pyridin-6-yl)benzonitrile] | > 50 | > 50 | > 50 | > 100 | > 100 | 34.4 | 37.2 | > 100 | 10.8 | 79.2 | > 100 | 34.5 | 39.5 | 33.5 | > 50 | EC50 [4]: > 50 µM; EC50 [5]: > 50 µM; CC50 (in vitro [6]): > 50 µM; CC50 (in vitro [7]): > 50 µM; EC50 [8]: 31.3 µM; CC50 (in vitro [9]): > 50 µM; EC50 [3]: > 50 µM; EC50 [10]: > 50 µM; EC50 (Sindbis virus (SINDV)): > 50 µM; EC50 (Zika virus (ZIKV)): > 50 µM
CC(=O)N[C@H]1[C@H]([C@H](O)[C@H](O)CO)OC(C(=O)O)=C[C@@H]1N=C(N)N [Zanamivir, zanamivir] | – | – | – | – | – | – | – | – | – | – | – | 0.5 | 68.1 | 0.3 | > 100 | –
CCN(CC)CCCC(C)Nc1ccnc2cc(Cl)ccc12 (stereo not shown) [Chloroquine, chloroquine] | 55.8 | > 100 | – | – | – | – | – | – | – | – | – | – | – | – | – | EC50 [3]: > 100 µM; EC50 (Sindbis virus (SINDV)): 8 µM; EC50 (Zika virus (ZIKV)): 13.4 µM
Cn1c(-c2ccccc2)nc2cc(-c3ccc(N)cc3)cnc21 [Compound 24, 4-(3-methyl-2-phenyl-3H-imidazo [4,5-b]pyridin-6-yl)aniline] | – | – | – | 62.2 | > 100 | – | 36.2 | 81.6 | 63 | 55.8 | 78.5 | – | – | – | – | IC50 [14]: 54.4 µM
COc1cc([C@@H]2c3cc4c(cc3[C@@H](O[C@@H]3O[C@@H]5CO[C@@H](C)O[C@H]5[C@H](O)[C@H]3O)[C@H]3COC(=O)[C@H]23)OCO4)cc(OC)c1O [ETO, etoposide, reference compound] | – | – | – | 2.35 | 2.55 | 0.05 | 0.37 | 4.6 | 0.1 | 1.37 | 0.6 | – | – | – | – | –
Cn1c(-c2ccccc2)nc2cc(-c3ccc([N+](=O)[O-])cc3)cnc21 [Compound 23, 3-methyl-6-(4-nitrophenyl)-2-phenyl-3H-imidazo [4,5-b]pyridine] | – | – | – | > 100 | > 100 | 72.9 | 89.9 | > 100 | > 100 | > 100 | > 100 | – | – | – | – | –
